Assay results as given in ChEMBL document CHEMBL3046549, “Comparative quantitative structureactivity relationship study of some 1-aminocyclopentyl-3-carboxyamides as CCR2 inhibitors using stepwise MLR, FA-MLR, and GA-PLS” (Med Chem Res, 2012).

Molecular target: C-C chemokine receptor type 2 (Homo sapiens, UniProt P41597)
Experiment: Antagonist activity at CCR2 (unknown origin)

C-C chemokine receptor type 2, sequence (P41597 whole entry): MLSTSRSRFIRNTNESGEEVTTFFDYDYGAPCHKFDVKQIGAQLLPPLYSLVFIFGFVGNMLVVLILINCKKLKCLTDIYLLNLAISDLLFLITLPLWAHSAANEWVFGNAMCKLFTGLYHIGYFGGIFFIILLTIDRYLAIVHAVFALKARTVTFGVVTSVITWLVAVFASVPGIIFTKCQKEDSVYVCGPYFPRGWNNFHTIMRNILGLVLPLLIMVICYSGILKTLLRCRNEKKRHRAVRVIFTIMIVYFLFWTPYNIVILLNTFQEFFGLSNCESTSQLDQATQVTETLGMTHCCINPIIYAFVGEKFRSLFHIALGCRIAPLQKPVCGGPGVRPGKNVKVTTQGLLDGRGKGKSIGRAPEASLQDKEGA

SMILES	IC50 [nM]
CC(C)[C@]1(C(=O)NCc2cc(C(F)(F)F)cc(C(F)(F)F)c2)CC[C@@H](NC2CCCOC2)C1 (stereo partly specified)	4.6
CCC1COCCC1N[C@@H]1CC[C@@](C(=O)NCc2cc(C(F)(F)F)cc(C(F)(F)F)c2)(C(C)C)C1 (stereo partly specified)	1.5
CC(C)[C@]1(C(=O)NCc2cc(C(F)(F)F)cc(C(F)(F)F)c2)CC[C@@H](NC2CCOCC2(O)C(F)(F)F)C1 (stereo partly specified)	5.5
CC1COCCC1N[C@@H]1CC[C@@](C(=O)NCc2cc(C(F)(F)F)cc(C(F)(F)F)c2)(C(C)C)C1 (stereo partly specified)	239
CCCC1COCCC1N[C@@H]1CC[C@@](C(=O)NCc2cc(C(F)(F)F)cc(C(F)(F)F)c2)(C(C)C)C1 (stereo partly specified)	3
CC(C)[C@]1(C(=O)NCc2cc(C(F)(F)F)cc(C(F)(F)F)c2)CC[C@@H](NC2CCc3ccccc3C2)C1 (stereo partly specified)	187
CC(C)[C@]1(C(=O)NCc2cc(C(F)(F)F)cc(C(F)(F)F)c2)CC[C@@H](NC2CCOCC2F)C1 (stereo partly specified)	51.1
CC(C)[C@]1(C(=O)NCc2cc(C(F)(F)F)cc(C(F)(F)F)c2)CC[C@@H](NC2CCOCC2(C)C)C1 (stereo partly specified)	28
CC(C)[C@]1(C(=O)NCc2cc(C(F)(F)F)cc(C(F)(F)F)c2)CC[C@@H](NC2CCOCC2C2CC2)C1 (stereo partly specified)	7.8
CC(C)[C@]1(C(=O)NCc2cc(C(F)(F)F)cc(C(F)(F)F)c2)CC[C@@H](NC2CCOCC2C(F)(F)F)C1 (stereo partly specified)	6
CC1CC(N[C@@H]2CC[C@@](C(=O)NCc3cc(C(F)(F)F)cc(C(F)(F)F)c3)(C(C)C)C2)CCO1 (stereo partly specified)	766
CC(C)[C@]1(C(=O)NCc2cc(C(F)(F)F)cc(C(F)(F)F)c2)CC[C@@H](NC2CCSC2)C1 (stereo partly specified)	22
CC(C)[C@]1(C(=O)NCc2cc(C(F)(F)F)cc(C(F)(F)F)c2)CC[C@@H](NC2CCSCC2)C1	36
CC(C)[C@]1(C(=O)NCc2cc(C(F)(F)F)cc(C(F)(F)F)c2)CC[C@@H](NC2CCOCC2)C1	56
CC(C)[C@]1(C(=O)NCc2cc(C(F)(F)F)cc(C(F)(F)F)c2)CC[C@@H](NC2CCOCC2O)C1 (stereo partly specified)	123
CC1COCC(C)C1N[C@@H]1CC[C@@](C(=O)NCc2cc(C(F)(F)F)cc(C(F)(F)F)c2)(C(C)C)C1 (stereo partly specified)	230
